Laboratory results reported in patent US9845322B2 (Hoffmann-La Roche Inc., priority 2016, dated 2017).

tested on: HBsAg secretion in HepG2.2.15 cells; assay: HBsAg assay (chemiluminescence immunoassay of secreted HBsAg in culture supernatant); type: cell-based, HBV; details: HepG2.2.15 cells; concentration at which HBsAg secretion was reduced by 50% compared to the no drug control; read-out: IC50 (HBsAg assay)
Description: HepG2.2.15 cells (Acs et al. Proc Natl Acad Sci USA, 84, (1987), 4641-4), a constitutively HBV-expressing cell line were cultured in DMEM+Glutamax-I medium (Invitrogen, Carlsbad, Calif., USA), supplemented with 10% fetal bovine serum (Invitrogen) and G418 (Invitrogen) at a final concentration of 200 mg/L and maintained in 5% CO2 at 37° C.
HepG2.2.15 cells were seeded in duplicate into white, 96-well plates at 1.5×10^4 cells/well. The cells were treated with a three-fold serial dilution series of the compounds in DMSO. The final DMSO concentration in all wells was 1% and DMSO was used as no drug control.
The HBsAg chemiluminescence immunoassay (CLIA) kit (Autobio Diagnostics Co., Zhengzhou, China, Catalog number: CL0310-2) was used to measure the levels of secreted HBV antigens semi-quantitatively. For the detection 50 μL/well culture supernatant was used and HBsAg was quantified using HBsAg chemiluminescence immunoassay (CLIA) kit (Autobio Diagnostics Co., Zhengzhou, China, Catalog number: CL0310-2), 50 μL of the supernatant was transferred to the CLIA assay plate and 50 μL of enzyme conjugate reagent was added into each well. The plates were sealed and gently agitated for 1 hour at room temperature. The supernatant-enzyme-mixture was discarded and wells were washed 6 times with 300 μL of PBS. The residual liquid was removed by plating the CLIA plate […] on absorbent tissue paper. 25 μL of substrates A and B were added to each well. Luminance was measured using a luminometer (Mithras LB 940 Multimode Microplate Reader) after 10 minutes incubation. Dose-response curves were generated and the IC50 value was extrapolated by using the E-WorkBook Suite (ID Business Solutions Ltd., Guildford, UK). The IC50 was defined as the compound concentration (or conditioned media log dilution) at which HBsAg secretion was reduced by 50% compared to the no drug control.
The compounds according to formula I were tested for their capacity to inhibit HBsAg as described herein.

| SMILES | IC50 [nM] |
| --- | --- |
| COc1cc(N2CCc3nc(-c4ncccn4)ncc3C2C)cc(Cl)c1F (single isomer, unassigned; (+)) [Example 42, (+)-6-(3-chloro-4-fluoro-5-methoxy-phenyl)-5-methyl-2-pyrimidin-2-yl-7,8-dihydro-5H-pyrido[4,3-d]pyrimidine] | 3250 |
| CC1c2cnc(-c3ncccn3)nc2CCN1c1cc(O)c(F)c(F)c1 (single isomer, unassigned; (-)) [Example 45, (−)-2,3-difluoro-5-(5-methyl-2-pyrimidin-2-yl-7,8-dihydro-5H-pyrido[4,3-d]pyrimidin-6-yl)phenol] | 176 |
| CCC1c2cnc(-c3ccccn3)nc2CCN1c1cc(F)c(F)c(OC)c1 (single isomer, unassigned; (+)) [Example 10, (+)-6-(3,4-difluoro-5-methoxy-phenyl)-5-ethyl-2-(2-pyridyl)-7,8-dihydro-5H-pyrido[4,3-d]pyrimidine] | 21900 |
| CC1c2cnc(-c3ncccn3)nc2CCN1c1cc(F)c(F)c(OCC2CCCO2)c1 (centres unmarked) [Example 122, 6-[3,4-difluoro-5-(tetrahydrofuran-2-ylmethoxy)phenyl]-(5R/S)-methyl-2-pyrimidin-2-yl-7,8-dihydro-5H-pyrido[4,3-d]pyrimidine] | 16 |
| CC1c2cnc(-c3ncccn3)nc2CCN1c1cc(N(C)C)cc(F)n1 (centres unmarked) [Example 196, 2-fluoro-N,N-dimethyl-6-(5-methyl-2-pyrimidin-2-yl-7,8-dihydro-5H-pyrido[4,3-d]pyrimidin-6-yl)pyridin-4-amine] | 2 |
| CC1c2cnc(-c3ncccn3)nc2CCN1c1cc(F)c(F)c(OCCCS(C)(=O)=O)c1 (centres unmarked) [Example 47, 6-[3,4-difluoro-5-(3-methylsulfonylpropoxy)phenyl]-5-methyl-2-pyrimidin-2-yl-7,8-dihydro-5H-pyrido[4,3-d]pyrimidine] | 36 |

same assay, conditions: Hepatitis B virus, HepG2.2.15, HepG2.2.15 cells; concentration at which HBsAg secretion was reduced by 50% compared to the no drug control; read-out: IC50 (HBsAg assay)

| SMILES | IC50 [nM] |
| --- | --- |
| CC1c2cnc(-c3ncccn3)nc2CCN1c1cc(OCC2CCCO2)cc(F)n1 (centres unmarked) [Example 166, 6-[6-fluoro-4-(tetrahydrofuran-2-ylmethoxy)-2-pyridyl]-5-methyl-2-pyrimidin-2-yl-7,8-dihydro-5H-pyrido[4,3-d]pyrimidine] | 19 |
| CC1c2cnc(-c3ncccn3)nc2CCN1c1cc(F)c(F)c(OCCCC(N)=O)c1 (centres unmarked) [Example 52, 4-[2,3-difluoro-5-(5-methyl-2-pyrimidin-2-yl-7,8-dihydro-5H-pyrido[4,3-d]pyrimidin-6-yl)phenoxy]butanamide] | 110 |
| CC1c2cnc(-c3ncccn3)nc2CCN1c1cc(N)cc(F)n1 (centres unmarked) [Example 210, 2-fluoro-6-(5-methyl-2-pyrimidin-2-yl-7,8-dihydro-5H-pyrido[4,3-d]pyrimidin-6-yl)pyridin-4-amine] | 65 |
| CC1c2cnc(-c3ncccn3)nc2CCN1c1cc(F)c(F)c(OCCCN2CCN(C(=O)OC(C)(C)C)CC2)c1 (centres unmarked) [Example 108, tert-butyl 4-[3-[2,3-difluoro-5-(5-methyl-2-pyrimidin-2-yl-7,8-dihydro-5H-pyrido[4,3-d]pyrimidin-6-yl)phenoxy]propyl]piperazine-1-carboxylate] | 84 |
| CC1c2cnc(-c3ncccn3)nc2CCN1c1cc(F)c(F)c(OCCC(=O)O)c1 (centres unmarked) [Example 51, 3-[2,3-difluoro-5-(5-methyl-2-pyrimidin-2-yl-7,8-dihydro-5H-pyrido[4,3-d]pyrimidin-6-yl)phenoxy]propanoic acid] | 2670 |
| CC1c2cnc(-c3ccccn3)nc2CCN1c1cc(F)c(F)c(OCCCCO)c1 (centres unmarked) [Example 24, 4-[2,3-difluoro-5-[5-methyl-2-(2-pyridyl)-7,8-dihydro-5H-pyrido[4,3-d]pyrimidin-6-yl]phenoxy]butan-1-ol] | 29 |
| CC1c2cnc(-c3ccccn3)nc2CCN1c1cc(N(C)C)cc(F)n1 (centres unmarked) [Example 216, 2-fluoro-N,N-dimethyl-6-[5-methyl-2-(2-pyridyl)-7,8-dihydro-5H-pyrido[4,3-d]pyrimidin-6-yl]pyridin-4-amine] | 13 |
| CC1c2cnc(-c3ncccn3)nc2CCN1c1cc(F)c(F)c(OCCCN2CCNCC2=O)c1 (centres unmarked) [Example 99, 1-[3-[2,3-difluoro-5-(5-methyl-2-pyrimidin-2-yl-7,8-dihydro-5H-pyrido[4,3-d]pyrimidin-6-yl)phenoxy]propyl]piperazin-2-one] | 1270 |
| CC1c2cnc(-c3ccccn3)nc2CCN1c1cc(OCCCCCC(N)=O)cc(F)n1 (centres unmarked) [Example 171, 6-[[2-fluoro-6-[5-methyl-2-(2-pyridyl)-7,8-dihydro-5H-pyrido[4,3-d]pyrimidin-6-yl]-4-pyridyl]oxy]hexanamide] | 18 |
| CC1c2cnc(-c3ncccn3)nc2CCN1c1cc(NS(C)(=O)=O)cc(F)n1 (centres unmarked) [Example 211, N-[2-fluoro-6-(5-methyl-2-pyrimidin-2-yl-7,8-dihydro-5H-pyrido[4,3-d]pyrimidin-6-yl)-4-pyridyl]methanesulfonamide] | 270 |
| CC1c2cnc(-c3ccccn3)nc2CCN1c1cc(F)c(F)c(OCCCS(C)(=O)=O)c1 (centres unmarked) [Example 33, 6-[3,4-difluoro-5-(3-methylsulfonylpropoxy)phenyl]-5-methyl-2-(2-pyridyl)-7,8-dihydro-5H-pyrido[4,3-d]pyrimidine] | 48 |
| CC1c2cnc(-c3ccccn3)nc2CCN1c1cc(F)c(F)c(OCC(=O)N(C)C)c1 (centres unmarked) [Example 30, 2-[2,3-difluoro-5-[5-methyl-2-(2-pyridyl)-7,8-dihydro-5H-pyrido[4,3-d]pyrimidin-6-yl]phenoxy]-N,N-dimethyl-acetamide] | 96 |
| CC1c2cnc(-c3ncccn3)nc2CCN1c1cc(F)c(F)c(OCCCN2CCN(C)CC2)c1 (centres unmarked) [Example 101, 6-[3,4-difluoro-5-[3-(4-methylpiperazin-1-yl)propoxy]phenyl]-5-methyl-2-pyrimidin-2-yl-7,8-dihydro-5H-pyrido[4,3-d]pyrimidine] | 113 |
| CC1c2cnc(-c3ncccn3)nc2CCN1c1cc(F)c(F)c(OCC(=O)O)c1 (centres unmarked) [Example 65, 2-[2,3-difluoro-5-(5-methyl-2-pyrimidin-2-yl-7,8-dihydro-5H-pyrido[4,3-d]pyrimidin-6-yl)phenoxy]acetic acid] | 16700 |
| CC1c2cnc(-c3ncccn3)nc2CCN1c1cc(F)c(F)c(OCCCS(N)(=O)=O)c1 (centres unmarked) [Example 97, 3-[2,3-difluoro-5-(5-methyl-2-pyrimidin-2-yl-7,8-dihydro-5H-pyrido[4,3-d]pyrimidin-6-yl)phenoxy]propane-1-sulfonamide] | 154 |
| CC1c2cnc(-c3ncccn3)nc2CCN1c1cc(OCCCOCC(=O)O)cc(F)n1 (centres unmarked) [Example 162, 2-[3-[[2-fluoro-6-(5-methyl-2-pyrimidin-2-yl-7,8-dihydro-5H-pyrido[4,3-d]pyrimidin-6-yl)-4-pyridyl]oxy]propoxy]acetic acid] | 1780 |
| CC1c2cnc(-c3ccccn3)nc2CCN1c1cc(OCC2CCOCC2)cc(F)n1 (centres unmarked) [Example 190, 6-[6-fluoro-4-(tetrahydropyran-4-ylmethoxy)-2-pyridyl]-5-methyl-2-(2-pyridyl)-7,8-dihydro-5H-pyrido[4,3-d]pyrimidine] | 24 |
| CC1c2cnc(-c3ncccn3)nc2CCN1c1cc(F)cc(OCC(F)F)n1 (centres unmarked) [Example 148, 6-[6-(2,2-difluoroethoxy)-4-fluoro-2-pyridyl]-5-methyl-2-pyrimidin-2-yl-7,8-dihydro-5H-pyrido[4,3-d]pyrimidine] | 17 |
| COc1cc(N2CCc3nc(-c4ncccn4)ncc3C2C)cc(F)n1 (centres unmarked) [Example 129, 6-(2-fluoro-6-methoxy-4-pyridyl)-5-methyl-2-pyrimidin-2-yl-7,8-dihydro-5H-pyrido[4,3-d]pyrimidine] | 18 |
| COc1cc(N2CCc3nc(-c4ncccn4)ncc3C2C)nc(F)c1Cl (single isomer, unassigned; (-)) [Example 146, (−)-6-(5-chloro-6-fluoro-4-methoxy-2-pyridyl)-5-methyl-2-pyrimidin-2-yl-7,8-dihydro-5H-pyrido[4,3-d]pyrimidine] | 2 |
| CC1c2cnc(-c3ncccn3)nc2CCN1c1cc(F)c(F)c(OCC(=O)N2CCOCC2)c1 (centres unmarked) [Example 84, 2-[2,3-difluoro-5-(5-methyl-2-pyrimidin-2-yl-7,8-dihydro-5H-pyrido[4,3-d]pyrimidin-6-yl)phenoxy]-1-morpholino-ethanone] | 266 |
| CC1c2cnc(-c3ncccn3)nc2CCN1c1cc(OCC2CS(=O)(=O)C2)cc(F)n1 (centres unmarked) [Example 195, 3-[[2-fluoro-6-(5-methyl-2-pyrimidin-2-yl-7,8-dihydro-5H-pyrido[4,3-d]pyrimidin-6-yl)-4-pyridyl]oxymethyl]thietane 1,1-dioxide] | 55 |
| CC1c2cnc(-c3ccccn3)nc2CCN1c1cc(F)cc(N2CCOCC2)n1 (centres unmarked) [Example 221, 4-[4-fluoro-6-[5-methyl-2-(2-pyridyl)-7,8-dihydro-5H-pyrido[4,3-d]pyrimidin-6-yl]-2-pyridyl]morpholine] | 34 |
